Results on one compound are retold here after US8557823B2, “Family of PFKFB3 inhibitors with anti-neoplastic activities” (Advanced Cancer Therapeutics, LLC, priority 2007, dated 2013).

One test relates to K562 leukemia cells. The test is described as follows: In vitro growth inhibition, K562. The class given is cell-based, human. The settings on record: Homo sapiens, 50% of vehicle control cell growth. The method, then:
The K562, HL-60, MDA-MB231, and melanoma (CRL-11174) human cancer cell lines were purchased from ATCC (American Tissue Type Culture Collection, Manassas, Va., United States of America). HeLa, A549, Lewis Lung Carcinoma, MDA-MB231, and melanoma cells were grown in Dulbecco's Modified Eagle Medium (DMEM) (Hyclone, Logan, Utah, United States of America) supplemented with 10% fetal bovine serum (Hyclone, Logan, Utah, United States of America) and 50 μg/mL gentamicin sulfate (Invitrogen, Carlsbad, Calif., United States of America). The HL-60, K562, and Jurkat cell lines were grown in RPMI-1640 medium (Hyclone, Logan, Utah, United States of America) supplemented with 10% fetal bovine serum and 50 μg/mL gentamicin sulfate. […]
(§1) Cells were collected 48 hours post-treatment, and cell number and viability were determined by trypan blue exclusion. […]

In test [1] the test system is PFKFB3 over-expressing Jurkat cells. The experiment in a line: Growth inhibition of Jurkat cells over-expressing PFKFB3 (Tet-ON, doxycycline). Type of test: cell-based. The conditions noted are these: Homo sapiens, 48 hours. The method, then:
FIG. 6D is a bar graph showing the anti-proliferative effects of 3PO in Jurkat cells engineered to over-express PFKFB3 through doxycylin treatment utilizing the Tet-on system (+PFKFB3, striped bars). Twenty-four hours prior to 3PO treatment, 1 μg/mL of doxycyclin is incubated with Jurkat cells containing a PFKFB3-expressing vector in order to induce PFKFB3 protein levels. Control cells (−PFKFB3, solid bars) containing an empty vector were similarly treated with doxycyclin and served as background PFKFB3 expression. Both cell types were subsequently incubated with increasing concentrations of 3PO (1, 3, 10, or 33 μM) or vehicle (V), and viable cells were analyzed after 48 hours. The bars represent the mean±STD of triplicate values from a representative experiment.
FLAG-PFKFB3 containing the complete PFKFB3 coding sequence and FLAG-epitope at its N-terminus was subcloned into the BamHI/HindIII restriction sites within the retroviral Tet response vector pRevTRE (Clontech, Mountain View, Calif., United States of America). Recombinant retrovirus was produced by Lipofectamine-mediated (Invitrogen, Carlsbad, Calif., United States of America) transfection of the pRevTRE-FLAG-PFKFB3 construct into PT67 packaging cell lines. […]
as §1

The test system of test [2] is MDA-MB231 human breast adenocarcinoma tumors. The test is described as follows: MDA-MB231 breast adenocarcinoma xenografts in Balb/c nude mice. Type of test: in vivo. The settings on record: 0.07 mg/g IP, three daily injections followed by three days off. The method, then: FIG. 7B is a graph showing the effects of 3PO treatment on the growth of established MDA-MB231 breast adenocarcinoma tumor zenografts in Balb/c athymic mice. Tumors were measured daily using blunt end Vernier calipers, and mice with established tumors (130-190 mg) were blindly randomized into either a DMSO control group (•, n=14) or a 3PO treatment group (∘, n=13). Experimental mice were weighed and given intraperitoneal (i.p.) injections of either 50 μL DMSO or 0.07 mg/g 3PO in 50 μL DMSO according to a cyclical dosing regimen of three sequential daily injections followed by three off days for the duration of the study (14 days). Arrows (↓) represent control or 3PO administrations. […]
Exponentially growing MDA-MB231 and HL-60 cells were collected in appropriate medium, washed twice and resuspended in PBS at a concentration of 20×10^7 cells/mL. […] Body weight and tumor growth were monitored daily throughout the study. Tumor masses were determined by measurement with Vernier calipers using the formula: mass (mg)=[width (mm^2)×length (mm)]/2. […]
The first tumor model tested consisted of mouse Lewis Lung Carcinoma xenografts grown in C57/Blk6 mice. For this study, mice were given IP injections of either DMSO or the calculated dose of 1 once daily for the duration of the study (14 days). […]

In the case of `O=C(/C=C/c1cccnc1)c1ccncc1` [Compound 1, 3-(3-pyridinyl)-1-(4-pyridinyl)-2-propen-1-one], the IC50 came out at 3.2 µM in the test on K562 leukemia cells and 19.3 µM in test [1]. Further, the “maximum inhibition of xenograft growth compared to DMSO controls” value in test [2] is 66%.
